The record followed here is US11130780B2, “Inhibitors of growth factor activation enzymes” (Washington University, priority 2015, dated 2021).

One assay has as its target T1, HGFA (Homo sapiens, UniProt Q04756).
T1 construct: His6 tag (N); seven amino acid spacer and seven amino acid TEV cleavage site (N); Honey Bee melittin signal peptide (N); made in house; host or cells: High 5 insect cells (baculovirus; virus raised in Sf9)
T1 sequence (Q04756 373-655): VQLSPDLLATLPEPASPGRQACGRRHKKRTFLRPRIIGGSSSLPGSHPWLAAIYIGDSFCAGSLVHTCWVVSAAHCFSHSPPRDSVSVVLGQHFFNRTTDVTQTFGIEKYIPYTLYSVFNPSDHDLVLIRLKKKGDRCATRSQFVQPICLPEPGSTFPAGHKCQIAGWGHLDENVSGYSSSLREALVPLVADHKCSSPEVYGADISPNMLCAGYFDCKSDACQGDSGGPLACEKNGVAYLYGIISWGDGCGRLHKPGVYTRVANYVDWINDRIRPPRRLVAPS
The assay can be described thus: Fluorescent kinetic enzyme inhibitor assay of HGFA. In kind it is biochemical. In a few lines: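 Recombinant His-tagged HGFA residues 373-655 from insect cells, with substrate at Km. Inhibitors in 11-point dilutions, 0-20 μM final, 2% DMSO, fluorescence (ex 380/em 460 nm) followed over time at room temperature. IC50 from four-parameter fit of mean velocity, average of three experiments.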

For the next assay, the target named is Factor Xa (Homo sapiens, UniProt P00742). The assay can be described thus: Chromogenic kinetic enzyme assay of Factor Xa. The class given is biochemical. Particulars: Table 4.1; read-out: Factor Xa Ki. An outline of the steps: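 Recombinant human thrombin (0.15 nM) or Factor Xa (0.35 nM) was mixed with 11-point inhibitor dilutions (0–20 μM, 2% DMSO) in TNC buffer, pH 8. Kinetic absorbance at 405 nm gave velocities. IC50 came from a four-parameter fit and Ki from Cheng–Prusoff.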
Factor Xa, sequence (P00742 235-488 limits assumed): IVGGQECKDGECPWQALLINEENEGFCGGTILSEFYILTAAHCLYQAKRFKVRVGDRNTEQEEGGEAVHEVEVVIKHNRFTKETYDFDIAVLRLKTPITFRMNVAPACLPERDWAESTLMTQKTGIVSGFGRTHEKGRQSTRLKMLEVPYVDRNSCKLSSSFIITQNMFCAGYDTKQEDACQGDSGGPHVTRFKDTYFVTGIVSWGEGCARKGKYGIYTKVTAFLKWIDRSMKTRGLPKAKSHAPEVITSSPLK
Factor Xa, sequence (P00742 41-179 partner limits assumed): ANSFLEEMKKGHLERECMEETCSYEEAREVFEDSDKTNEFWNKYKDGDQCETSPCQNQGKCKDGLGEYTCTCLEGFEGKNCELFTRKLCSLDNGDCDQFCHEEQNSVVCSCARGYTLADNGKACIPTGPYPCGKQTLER

The mark [1] stands for this setting: Table 4.2, Boc-QLR-AMC substrate, read-out: HGFA Ki.

Read-outs that look alike come from different tables or passages of the source.

In general, Ki refers to a measure of affinity in units of concentration, obtained from inhibition or displacement. For the compound `CC(=O)N[C@@H](CCCNC(=N)N)C(=O)N[C@@H](CCC(N)=O)C(=O)N[C@@H](CC(C)C)C(=O)N[C@@H](CCCNC(=N)N)C(=O)c1nccs1` [Compound 5e, Ac-RQLR(SEQ ID NO: 6)-kt], the inhibitory constant (Ki) at HGFA (setting [1]) amounted to 60 nM; on Factor Xa, 8.1 nM.
Consider `CC(=O)N[C@@H](CCCCN)C(=O)N[C@@H](CCC(N)=O)C(=O)N[C@@H](CC(C)C)C(=O)N[C@@H](CCCNC(=N)N)C(=O)c1nccs1` [Compound 5, Ac-KQLR(SEQ ID NO: 1)-kt], for which the Ki at HGFA (setting [1]) was determined as 70 nM; at HGFA (read-out: Ki for HGFA), 53 nM; at Factor Xa, 170 nM.
On to `CC(=O)N[C@@H](CCCCN)C(=O)N[C@@H](CCCNC(=N)N)C(=O)N[C@@H](CC(C)C)C(=O)N[C@@H](CCCNC(=N)N)C(=O)c1nccs1` [Compound 5g, Ac-KRLR(SEQ ID NO: 8)-kt], for which the Ki at HGFA (setting [1]) was 12 nM.
For the compound `CC(=O)N[C@@H](CO)C(=O)N[C@@H](CCCCN)C(=O)N[C@@H](CC(C)C)C(=O)N[C@@H](CCCNC(=N)N)C(=O)c1nccs1` [Compound 6, Ac-SKLR(SEQ ID NO: 10)-kt], the Ki was determined as 81 nM on HGFA (read-out: Ki for HGFA) and 3060 nM at Factor Xa.
As for `CC(=O)N[C@@H](Cc1c[nH]c2ccccc12)C(=O)N[C@@H](CCCNC(=N)N)C(=O)N[C@@H](CC(C)C)C(=O)N[C@@H](CCCNC(=N)N)C(=O)c1nccs1` [Compound 5h, Ac-WRLR(SEQ ID NO: 9)-kt], the Ki on HGFA (setting [1]) came to 21 nM.
Consider `CC(=O)N[C@@H](CO)C(=O)N[C@@H](CCCCN)C(=O)N[C@@H](Cc1ccccc1)C(=O)N[C@@H](CCCNC(=N)N)C(=O)c1nccs1` [Compound 6c, Ac-SKFR(SEQ ID NO: 13)-kt], for which the “selectivity among HGFA, matriptase and hepsin” value (shortened to “selectivity among HGFA”) at HGFA was “HGFA selectivity over both hepsin and matriptase”. Moreover, the Ki at HGFA (setting [1]) came to 57 nM; at Factor Xa it was 530 nM.
On to `N=C(N)c1ccc2cc(OC(=O)c3ccc(N=C(N)N)cc3)ccc2c1` [Nafamostat, reference compound], for which the Ki at HGFA (setting [1]) is 25 nM.
Turning to `CC(=O)N[C@@H](CO)C(=O)N[C@@H](Cc1c[nH]c2ccccc12)C(=O)N[C@@H](CC(C)C)C(=O)N[C@@H](CCCNC(=N)N)C(=O)c1nccs1` [Compound 6g, Ac-SWLR(SEQ ID NO: 17)-kt], at HGFA, the “selectivity among HGFA” value was “HGFA selectivity over both hepsin and matriptase”. In addition, the Ki stood at 63 nM on HGFA (setting [1]), 66 nM on HGFA (read-out: Ki for HGFA) and 759 nM on Factor Xa.
Turning to `CC(=O)N[C@@H](CO)C(=O)N[C@@H](CCCNC(=N)N)C(=O)N[C@@H](CC(C)C)C(=O)N[C@@H](CCCNC(=N)N)C(=O)c1nccs1` [Compound 6e, Ac-SRLR(SEQ ID NO: 15)-kt], the “selectivity among HGFA” value at HGFA was “HGFA selectivity over both hepsin and matriptase”. In addition, the Ki on HGFA (setting [1]) was found to be 24 nM.
`CC(=O)N[C@@H](CCCCN)C(=O)N[C@@H](CCC(N)=O)C(=O)N[C@@H](Cc1ccccc1)C(=O)N[C@@H](CCCNC(=N)N)C(=O)c1nccs1` [Compound 5c, Ac-KQFR(SEQ ID NO: 4)-kt]: the Ki came to 58 nM at HGFA (setting [1]) and 78.8 nM at Factor Xa.
